Laboratory results from patent US10047078B2, “Aminothiazole compounds” (National Health Research Institutes, priority 2016, dated 2018).

Columns and labels:
32D-ITD/F691L cells = assay: MTS cell viability, 32D cells expressing FLT3-ITD mutant; type: cell-based, Murine; conditions: 72-h incubation
Source text: (§1) The five leukemic 32D cell lines were purchased from American Type Culture Collection (ATCC, Manassas, Va., USA). Murine pro-B lymphocyte 32D cell lines were stably transfected with expression vectors that encoded human FLT3 containing an ITD mutation (32D-ITD cells), ITD and D835Y (32D-ITD/D835Y cells), ITD and D835V (32D-ITD/D835V cells), ITD and D835F (32D-ITD/D835F cells), and ITD and F691L (32D-ITD/F691L cells) mutations, which lead to constitutive activation of the FLT3 downstream signaling proteins. The cell viability was assessed with the MTS assay described in PLoS One, 2014, 9, e97116. 32D-ITD/D835Y, 32D-ITD/D835V, 32D-ITD/D835F, 32D-ITD/F691L, and 32D-ITD/F691I cells were seeded in 96-well plates at 1×10^4 cells/mL (100 μL per well) for 24-h incubation. Test compounds (at various concentrations in dimethyl sulfoxide (DMSO) were subsequently added to the culture medium for 72-h incubation. The cell viability was determined by the MTS assay (Promega, Madison, Wis., USA).

32D-ITD/D835F cells = assay: as above; type: cell-based, Murine; conditions: 72-h incubation
Source text: as §1

32D-ITD/F691I cells = assay: as above; type: cell-based, Murine; conditions: 72-h incubation
Source text: as §1

MOLM-13 xenografts = assay: Xenograft efficacy, MOLM-13 model; type: in vivo, nude mice; conditions: starting tumor size ~250 mm^3
Method: (§2) Male nude mice (Nu-Fox1^nu) of 8 weeks old were purchased from BioLASCO (Taipei, Taiwan, R.O.C.). Human colorectal Colo205, pancreatic Mia-PaCa 2 tumor cells or MOLM-13, 32D-ITD/D835Y leukemia cells were inoculated subcutaneously at 1×10^6 cells each in the nude mice. All human cancer cells were detected as free of Mycoplasma spp before they were injected into animals. The tumor cells grow as xenograft tumors and the tumor size reached approximately 200-250 mm^3 in the nude mice ready for dose treatments. Test compounds were dissolved in 20% 2-hydroxypropy-β-cyclodextrin individually for oral gavage administrations to the nude mice. The tumor-bearing mice were treated with test compounds at various doses, 5 times a week for 2 weeks. Tumor sizes were measured by an electronic caliper and calculated with the formula: tumor size=length×width^2/2. Tumor size and animal body weight were measured twice a week before and after the tumor cell inoculation throughout the observation period. Uses of animals and experimental procedures thereof were approved by the Institutional Animal Care and Use Committee (IACUC) of the National Health Research Institutes.

[1] = test system: xenografts colo205 nude mice; assay: In vivo toxicity study, colo205 model; conditions: for Mortality (nude mice n = 6): 5 on 2 off × 2; for Tolerability: PO once daily, Compounds 1, 2, 3, 4, 6 at 50, 50, 100, 150 and 25 mg/kg
Method: as §2, with “All human cancer cells were detected as free of Mycoplasma spp before they were injected into animals.” left out
(§3) Nine weeks old athymic nu/nu nude mice were administered orally at a once daily dose of 25, 50, 100, or 150 mg/kg on days 1-5 and 8-12.

Colo205 xenografts = assay: Xenograft efficacy, Colo205 model; type: in vivo; conditions: Colo205 xenografts in nude mice, 5 times a week for 2 weeks
Method: as §2

[2] = test system: xenografts MOLM-13 nude mice; assay: In vivo toxicity study, MOLM-13 model; conditions: for Mortality (nude mice n = 6 or 7): 5 on 2 off × 2; for Tolerability: PO once daily, Compound 2 at 25 and 50, Compound 4 at 150 mg/kg
Method: as §2
(§4) Compounds of formula (I) were tested in animals for their in vivo efficacy following the procedure described in EXAMPLE 24. Nine weeks old athymic nu/nu nude mice were administered orally at a once daily dose of 25, 50, 100, or 150 mg/kg on days 1-5 and 8-12.

[3] = test system: xenografts FLT3-ITD-D835Y model; assay: Xenograft efficacy, FLT3-ITD-D835Y model; type: in vivo; conditions: FLT3-ITD-D835Y xenograft in nude mice, PO 25 mg/kg
Method: as §2

[4] = Pharmacokinetics and oral bioavailability in mice; conditions: for AUC(0-inf) / bioavailability: male, ICR, mouse, plasma
Method: (§7) Male ICR mice weighing 25-35 g each were obtained from BioLASCO (Taiwan Co., Ltd, Ilan, Taiwan). The animal studies were performed according to the National Health Research Institutes (NHRI) institutional animal care and committee-approved procedures. […] A single dose at 10 mg/kg of each of these four compounds was administered orally (PO) to a total of 27 male mice. Each mouse was given 100 mL of the IV dosing solution by intravenous tail-vein injection and 200 mL of the PO dosing solution by oral gavage. Animals that received the IV dose were not fasted and that received the PO dose were fasted overnight prior to dosing. At 0 (immediately before dosing), 2 (IV only), 5 (IV only), 15 and 30 min and at 1, 2, 4, 6, 8, 16 and 24 h after dosing, blood (˜500 mL) was collected from groups of 3 mice at each time point by cardio puncture and stored in ice (0-4° C.). Ethylenediaminetetraacetic acid (EDTA) was used as the anticoagulant. Plasma was separated from the blood by centrifugation (3000 rpm for 15 minutes at 4° C. in a Beckman Model Allegra 6R centrifuge) and stored in a freezer (−20° C.). Control plasma was obtained from mice receiving no compound for use of constructing the standard curve and for the preparation of quality control (QC) samples. All samples were analyzed for the parent compound by LC-MS/MS.
(§8) Oral bioavailability, presented as a percentage (F %), was calculated from dividing the average area under the curve (AUC) value of a compound after PO dosing by the average AUC value of the compound after IV dosing following dose normalization.

KIT = KIT (Homo sapiens, UniProt P10721); assay: SelectScreen biochemical kinase profiling; type: binding; conditions: 100 nM, read-out: Inhibition (% of control) at 100 nM
Method: (§5) Kinase inhibition data were obtained from SelectScreen® Biochemical Kinase Profiling Service.
(§6) More specifically, test compounds were screened in 160 nL of a 1% DMSO solution in the well of a 384-well plate; kinase/antibody mixtures (8 μL) were diluted to a 2-fold working concentration in an appropriate kinase buffer (3.84 μL) and a 4-fold AlexaFluor® labeled tracer (4 μL) was prepared in the kinase buffer; incubation of test solutions was conducted at room is temperature for 60 minutes; and readout on a fluorescence plate reader was recorded and analyzed.

TRK B = TRK B (Homo sapiens, UniProt Q16620); assay: SelectScreen biochemical kinase profiling; type: binding; conditions: 100 nM, read-out: Inhibition (% of control) at 100 nM
Method: as §5, §6

DDR1 = DDR1 (Homo sapiens, UniProt Q08345); assay: SelectScreen biochemical kinase profiling; type: binding; conditions: 100 nM, read-out: Inhibition (% of control) at 100 nM
Method: as §5, §6

RET = RET (Homo sapiens, UniProt P07949); assay: SelectScreen biochemical kinase profiling; type: binding; conditions: 100 nM, read-out: Inhibition (% of control) at 100 nM
Method: as §5, §6

TRK A = TRK A (Homo sapiens, UniProt P04629); assay: SelectScreen biochemical kinase profiling; type: binding; conditions: 100 nM, read-out: Inhibition (% of control) at 100 nM
Method: as §5, §6

SRC = SRC (Homo sapiens, UniProt P12931); assay: SelectScreen biochemical kinase profiling; type: binding; conditions: 100 nM, read-out: Inhibition (% of control) at 100 nM
Method: as §5, §6

PDGFR B = PDGFR B (Homo sapiens, UniProt P09619); assay: SelectScreen biochemical kinase profiling; type: binding; conditions: 100 nM, read-out: Inhibition (% of control) at 100 nM
Method: as §5, §6

PDGFR A = PDGFR A (Homo sapiens, UniProt P16234); assay: SelectScreen biochemical kinase profiling; type: binding; conditions: 100 nM, read-out: Inhibition (% of control) at 100 nM
Method: as §5, §6

[5] = test system: xenografts FLT3-ITD-D835Y nude mice; assay: In vivo toxicity study, FLT3-ITD-D835Y model; conditions: PO 25 mg/kg once daily; for Mortality (nude mice n = 8): 5 on 2 off × 2
Method: as §2, §4

[6] = test system: xenografts Mia-paca2 nude mice; assay: In vivo toxicity study, Mia-paca2 model; conditions: PO 25 mg/kg once daily; for Mortality (nude mice n = 6): 5 on 2 off × 2
Method: as §2, with “All human cancer cells were detected as free of Mycoplasma spp before they were injected into animals.” left out
as §3

Mia-paca2 tumor model = assay: Xenograft efficacy, Mia-paca2 tumor model; type: in vivo, nude mice; conditions: PO 25 mg/kg
Method: as §2

in vivo = conditions: male, ICR, mouse
Method: as §7, §8

ABL1 T315I = ABL1 T315I (Homo sapiens, UniProt P00519, T315I); assay: SelectScreen biochemical kinase profiling; type: binding; conditions: 100 nM, read-out: Inhibition (% of control) at 100 nM
Method: as §5, §6

Sequence of PDGFR B (P09619 33-1106): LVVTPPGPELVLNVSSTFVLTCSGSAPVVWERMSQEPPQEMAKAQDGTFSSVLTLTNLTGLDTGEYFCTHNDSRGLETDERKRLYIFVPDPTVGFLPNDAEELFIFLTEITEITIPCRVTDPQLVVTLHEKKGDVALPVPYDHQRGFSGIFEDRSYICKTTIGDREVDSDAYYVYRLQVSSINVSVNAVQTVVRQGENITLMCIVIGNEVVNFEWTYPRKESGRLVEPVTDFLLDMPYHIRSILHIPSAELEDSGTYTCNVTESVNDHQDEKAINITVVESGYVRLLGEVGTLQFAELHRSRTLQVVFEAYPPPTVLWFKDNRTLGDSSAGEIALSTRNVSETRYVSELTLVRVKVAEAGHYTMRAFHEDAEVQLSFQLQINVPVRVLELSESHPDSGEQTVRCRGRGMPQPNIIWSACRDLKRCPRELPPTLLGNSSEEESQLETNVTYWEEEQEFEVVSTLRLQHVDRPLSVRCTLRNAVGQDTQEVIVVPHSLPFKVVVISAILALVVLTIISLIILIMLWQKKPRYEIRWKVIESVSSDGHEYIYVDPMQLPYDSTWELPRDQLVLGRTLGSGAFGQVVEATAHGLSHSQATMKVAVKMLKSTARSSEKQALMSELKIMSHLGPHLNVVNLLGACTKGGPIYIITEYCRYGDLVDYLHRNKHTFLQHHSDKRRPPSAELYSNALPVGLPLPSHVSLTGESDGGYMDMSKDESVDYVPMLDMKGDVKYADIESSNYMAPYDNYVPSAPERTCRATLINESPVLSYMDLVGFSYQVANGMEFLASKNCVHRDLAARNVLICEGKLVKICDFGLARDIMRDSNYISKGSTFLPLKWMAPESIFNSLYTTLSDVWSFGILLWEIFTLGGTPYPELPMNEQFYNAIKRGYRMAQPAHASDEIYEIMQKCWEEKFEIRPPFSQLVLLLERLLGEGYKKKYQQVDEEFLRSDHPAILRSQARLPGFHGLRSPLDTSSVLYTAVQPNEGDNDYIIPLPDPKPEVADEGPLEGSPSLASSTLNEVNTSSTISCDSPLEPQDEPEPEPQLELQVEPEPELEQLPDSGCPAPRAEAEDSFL
Sequence of DDR1 (Q08345 19-913): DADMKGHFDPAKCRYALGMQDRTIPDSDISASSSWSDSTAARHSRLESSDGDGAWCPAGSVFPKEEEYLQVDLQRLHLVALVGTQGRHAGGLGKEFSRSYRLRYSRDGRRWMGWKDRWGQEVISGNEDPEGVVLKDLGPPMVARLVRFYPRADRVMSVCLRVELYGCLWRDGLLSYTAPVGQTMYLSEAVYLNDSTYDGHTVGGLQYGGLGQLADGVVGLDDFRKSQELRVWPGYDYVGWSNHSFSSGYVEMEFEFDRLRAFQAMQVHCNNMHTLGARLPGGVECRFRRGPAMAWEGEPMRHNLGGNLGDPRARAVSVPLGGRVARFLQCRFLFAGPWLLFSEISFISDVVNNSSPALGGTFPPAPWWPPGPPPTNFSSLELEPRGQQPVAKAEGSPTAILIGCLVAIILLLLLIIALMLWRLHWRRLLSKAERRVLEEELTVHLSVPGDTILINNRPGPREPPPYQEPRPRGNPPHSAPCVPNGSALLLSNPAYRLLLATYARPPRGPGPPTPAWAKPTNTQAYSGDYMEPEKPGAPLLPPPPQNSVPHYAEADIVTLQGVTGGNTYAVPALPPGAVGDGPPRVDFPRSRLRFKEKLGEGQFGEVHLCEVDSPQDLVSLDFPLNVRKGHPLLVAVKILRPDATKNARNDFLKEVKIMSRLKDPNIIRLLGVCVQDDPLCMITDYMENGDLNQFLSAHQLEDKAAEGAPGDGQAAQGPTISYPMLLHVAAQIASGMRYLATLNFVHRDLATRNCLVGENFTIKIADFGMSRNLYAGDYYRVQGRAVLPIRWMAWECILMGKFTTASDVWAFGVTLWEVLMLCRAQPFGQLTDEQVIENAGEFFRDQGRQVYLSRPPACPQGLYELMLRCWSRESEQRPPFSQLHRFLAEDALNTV
Sequence of TRK B (Q16620 32-822): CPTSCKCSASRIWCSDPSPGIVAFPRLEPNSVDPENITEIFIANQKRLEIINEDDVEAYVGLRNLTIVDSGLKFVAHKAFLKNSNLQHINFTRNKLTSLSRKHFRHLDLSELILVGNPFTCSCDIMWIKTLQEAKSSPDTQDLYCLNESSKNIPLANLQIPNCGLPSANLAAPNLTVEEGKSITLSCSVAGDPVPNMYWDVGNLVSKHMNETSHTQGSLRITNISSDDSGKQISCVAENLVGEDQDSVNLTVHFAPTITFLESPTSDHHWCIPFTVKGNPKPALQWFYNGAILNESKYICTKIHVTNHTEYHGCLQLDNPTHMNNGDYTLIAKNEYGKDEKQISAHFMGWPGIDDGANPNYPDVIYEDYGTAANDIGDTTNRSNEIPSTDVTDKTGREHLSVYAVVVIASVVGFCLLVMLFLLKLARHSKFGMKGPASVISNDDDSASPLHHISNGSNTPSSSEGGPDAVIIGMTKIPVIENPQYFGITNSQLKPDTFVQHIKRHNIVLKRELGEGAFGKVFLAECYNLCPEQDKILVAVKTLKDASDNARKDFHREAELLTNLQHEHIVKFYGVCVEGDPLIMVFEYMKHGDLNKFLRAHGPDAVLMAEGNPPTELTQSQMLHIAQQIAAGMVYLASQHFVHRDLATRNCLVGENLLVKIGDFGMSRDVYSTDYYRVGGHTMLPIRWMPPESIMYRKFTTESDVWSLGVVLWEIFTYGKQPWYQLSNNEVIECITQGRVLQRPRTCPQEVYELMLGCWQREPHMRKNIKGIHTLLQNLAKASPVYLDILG
Sequence of TRK A (P04629 33-796): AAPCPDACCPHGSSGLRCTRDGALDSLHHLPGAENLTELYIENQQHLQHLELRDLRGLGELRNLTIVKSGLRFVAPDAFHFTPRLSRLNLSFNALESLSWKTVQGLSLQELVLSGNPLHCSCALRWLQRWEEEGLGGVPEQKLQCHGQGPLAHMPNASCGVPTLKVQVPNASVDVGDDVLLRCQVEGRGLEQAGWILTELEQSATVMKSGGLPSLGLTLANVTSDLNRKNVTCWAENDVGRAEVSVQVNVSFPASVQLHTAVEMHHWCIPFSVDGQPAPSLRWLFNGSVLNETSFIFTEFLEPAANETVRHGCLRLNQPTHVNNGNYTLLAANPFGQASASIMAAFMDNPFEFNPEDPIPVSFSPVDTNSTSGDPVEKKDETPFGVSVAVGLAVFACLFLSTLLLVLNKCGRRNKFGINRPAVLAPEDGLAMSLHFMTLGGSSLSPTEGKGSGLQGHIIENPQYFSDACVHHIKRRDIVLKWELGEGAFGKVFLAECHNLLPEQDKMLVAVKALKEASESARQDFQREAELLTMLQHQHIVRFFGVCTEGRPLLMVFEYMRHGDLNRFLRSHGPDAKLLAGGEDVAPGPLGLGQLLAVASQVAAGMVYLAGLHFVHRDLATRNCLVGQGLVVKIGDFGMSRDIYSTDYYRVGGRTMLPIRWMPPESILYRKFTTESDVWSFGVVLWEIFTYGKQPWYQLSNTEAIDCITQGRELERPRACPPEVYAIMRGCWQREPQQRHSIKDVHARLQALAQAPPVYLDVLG
Sequence of PDGFR A (P16234 24-1089): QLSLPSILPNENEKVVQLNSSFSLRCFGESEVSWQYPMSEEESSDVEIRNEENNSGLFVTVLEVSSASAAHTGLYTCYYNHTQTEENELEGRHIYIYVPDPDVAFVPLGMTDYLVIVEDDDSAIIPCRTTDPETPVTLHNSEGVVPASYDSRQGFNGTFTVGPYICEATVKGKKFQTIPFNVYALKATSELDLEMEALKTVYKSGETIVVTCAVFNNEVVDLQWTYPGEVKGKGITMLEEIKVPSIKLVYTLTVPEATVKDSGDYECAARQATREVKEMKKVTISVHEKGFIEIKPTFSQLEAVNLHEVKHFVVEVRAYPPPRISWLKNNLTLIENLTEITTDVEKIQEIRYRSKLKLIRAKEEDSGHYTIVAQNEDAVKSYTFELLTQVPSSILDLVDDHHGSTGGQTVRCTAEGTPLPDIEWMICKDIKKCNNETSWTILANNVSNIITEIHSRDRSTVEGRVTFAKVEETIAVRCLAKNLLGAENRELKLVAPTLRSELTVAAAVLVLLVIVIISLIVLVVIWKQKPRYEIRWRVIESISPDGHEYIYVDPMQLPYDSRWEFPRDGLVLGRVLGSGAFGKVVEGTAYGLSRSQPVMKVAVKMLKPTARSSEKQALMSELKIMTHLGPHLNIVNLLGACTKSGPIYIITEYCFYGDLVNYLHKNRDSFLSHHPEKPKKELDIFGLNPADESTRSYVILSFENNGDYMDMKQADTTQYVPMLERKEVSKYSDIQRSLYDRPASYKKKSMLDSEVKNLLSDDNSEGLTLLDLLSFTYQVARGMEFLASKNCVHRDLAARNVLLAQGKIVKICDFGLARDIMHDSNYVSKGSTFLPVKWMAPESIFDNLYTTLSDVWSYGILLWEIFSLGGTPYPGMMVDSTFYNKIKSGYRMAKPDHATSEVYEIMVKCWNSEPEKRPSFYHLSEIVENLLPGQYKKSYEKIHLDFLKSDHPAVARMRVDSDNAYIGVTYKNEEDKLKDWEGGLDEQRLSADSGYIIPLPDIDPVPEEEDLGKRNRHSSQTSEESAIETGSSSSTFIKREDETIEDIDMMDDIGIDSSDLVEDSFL

Row | Structure (SMILES) | GI50 (32D-ITD/F691L cells; Mus musculus, 32D, 72 h) | GI50 (32D-ITD/D835F cells) | GI50 (32D-ITD/D835F cells; Mus musculus, 32D, 72 h) | GI50 (32D-ITD/F691I cells; Mus musculus, 32D, 72 h) | Tolerability [1] | Tolerability [2] | Day 12 tumor regression [3] | AUC(0-inf) ([4]; iv, 2 mg/kg) | AUC(0-inf) ([4]; po, 10 mg/kg) | inhibition at 0.1 µM (KIT) | inhibition at 0.1 µM (TRK B) | inhibition at 0.1 µM (DDR1) | inhibition at 0.1 µM (RET) | inhibition at 0.1 µM (TRK A) | inhibition at 0.1 µM (SRC) | inhibition at 0.1 µM (PDGFR B) | inhibition at 0.1 µM (PDGFR A) | Tolerability [5] | Mortality (nude mice n = 8) [5] | Tolerability [6] | further results
1 | CCc1cc(NC(=O)Nc2ccc(-c3cnc(Nc4cc(N5CCN(CCO)CC5)ncn4)s3)cc2)no1 [Compound 4, 1-(5-Ethylisoxazol-3-yl)-3-(4-(2-((6-(4-(2-hydroxyethyl)piperazin-1-yl)pyrimidin-4-yl)amino)thiazol-5-yl)phenyl)urea] | < 20 nM | 5.5 nM | < 6 nM | < 20 nM | well tolerated | well tolerated | – | – | – | – | – | – | – | – | – | – | – | – | – | – | GI50 (32D-ITD/F691L cells): 12 nM; GI50 (32D-ITD/F691I cells): 19 nM; Day 25 tumor size (MOLM-13 xenografts; PO 150 mpk): 193 mm^3 (150 mpk); Mortality (nude mice n = 6) ([1]; PO 150 mg/kg once daily): 0/6 (150 mg/kg); Day 18 TGI (Colo205 xenografts; PO 150 mg/kg, 150 mg/kg): ~80%; Mortality (nude mice n = 6 or 7) ([2]; PO 150 mg/kg once daily): 0/6
2 | CCc1cc(NC(=O)Nc2ccc(-c3cnc(Nc4cc(N5CCN(CC)CC5)ncn4)s3)cc2)no1 [Compound 2, 1-(5-Ethylisoxazol-3-yl)-3-(4-(2-((6-(4-ethylpiperazin-1-yl)pyrimidin-4-yl)amino)thiazol-5-yl)phenyl)urea] | 14 nM | 5.8 nM | < 6 nM | 158 nM | well tolerated | well tolerated | 34% | 1440 ng·h/mL | 2800 ng·h/mL | 67% | 72% | 80% | 94% | 60% | 79% | 80% | 89% | well tolerated | 0/8 (25 mg/kg) | – | Day 25 tumor size (MOLM-13 xenografts; PO 25 mpk): 270 mm^3; Day 25 tumor size (MOLM-13 xenografts; PO 50 mpk): 53 mm^3; Mortality (nude mice n = 6) ([1]; PO 50 mg/kg once daily): 0/6 (50 mg/kg); F (%) oral bioavailability ([4]; mice, PO 10 mg/kg vs IV 2 mg/kg, dose normalized): 38%; Day 18 TGI (Colo205 xenografts; PO 50 mg/kg, 50 mg/kg): ~80%; Mortality (nude mice n = 6 or 7) ([2]; PO 25 or 50 mg/kg once daily): 0/6
3 | CCc1cc(NC(=O)Nc2ccc(-c3cnc(Nc4cc(N5CCN(CCF)CC5)ncn4)s3)cc2)no1 [Compound 5, 1-(5-Ethylisoxazol-3-yl)-3-(4-(2-((6-(4-(2-fluoroethyl)piperazin-1-yl)pyrimidin-4-yl)amino)thiazol-5-yl)phenyl)urea] | – | – | – | – | – | – | 22% | 2720 ng·h/mL | 8240 ng·h/mL | – | – | – | – | – | – | – | – | well tolerated | 0/8 (25 mg/kg) | well tolerated | Mortality (nude mice n = 6) [6]: 0/6 (25 mg/kg); bioavailability ([4]; po, 10 mg/kg): 67%; Day 18 TGI (Mia-paca2 tumor model): 65%
4 | CCc1cc(NC(=O)Nc2ccc(-c3cnc(Nc4cc(N5CCN(CCF)CC5)nc(C)n4)s3)cc2)no1 [Compound 6, 1-(5-Ethylisoxazol-3-yl)-3-(4-(2-((6-(4-(2-fluoroethyl)piperazin-1-yl)-2-methylpyrimidin-4-yl)amino)thiazol-5-yl)phenyl)urea] | – | – | – | – | well tolerated | – | – | – | – | – | – | – | – | – | – | – | – | – | – | well tolerated | Mortality (nude mice n = 6) [6]: 0/6 (25 mg/kg); Mortality (nude mice n = 6) ([1]; PO 25 mg/kg once daily): 0/6 (25 mg/kg); AUC(0-inf) (in vivo; iv, 2 mg/kg): 1840 ng·h/mL; AUC(0-inf) (in vivo; po, 10 mg/kg): 7580 ng·h/mL; bioavailability (in vivo; po, 10 mg/kg): 89%; Day 18 TGI (Colo205 xenografts; PO 25 mg/kg, 25 mg/kg): ~80%; Day 18 TGI (Mia-paca2 tumor model): 68%
5 | CCc1cc(NC(=O)Nc2ccc(-c3cnc(Nc4cc(OCCN5CCOCC5)ncn4)s3)cc2)no1 [Compound 3, 1-(5-Ethylisoxazol-3-yl)-3-(4-(2-((6-(2-morpholinoethoxy)pyrimidin-4-yl)amino)thiazol-5-yl)phenyl)urea] | – | – | – | – | well tolerated | – | – | 2070 ng·h/mL | 11400 ng·h/mL | 85% | 73% | 77% | 56% | 69% | 66% | 92% | 79% | – | – | – | Mortality (nude mice n = 6) ([1]; PO 100 mg/kg once daily): 0/6 (100 mg/kg); bioavailability ([4]; po, 10 mg/kg): 96%; inhibition at 0.1 µM (ABL1 T315I): 15%; Day 18 TGI (Colo205 xenografts; PO 100 mg/kg, 100 mg/kg): ~80%
